≈ marks a conversion by molar mass, not a printed value.
How the values were obtained:
[1] = target: Protein kinase C theta type (Homo sapiens, UniProt Q04759); test: Inhibition of human PKCtheta by IMAP assay
[2] = target: Protein kinase C delta type (Homo sapiens, UniProt Q05655); test: Inhibition of human PKCdelta by IMAP assay
[3] = Metabolic stability in mouse liver microsomes assessed as half life; type: ADME, Microsome
[4] = Metabolic stability in human liver microsomes assessed as half life; type: ADME, Microsome
[5] = Membrane permeability by PAMPA; type: ADME; settings: read-out: permeability
[6] = target: Protein kinase C beta type (Homo sapiens, UniProt P05771); test: Inhibition of human PKCbeta by IMAP assay
T-cell [7] = test: Blockade of anti-CD3 and anti-CD28 antibody-induced IL2 expression in wild type C57BL/6 mouse T cells after 20 to 24 hrs by ELISA; type: functional, cell-based; settings: C57BL/6, T-cell
[8] = Inhibition of IKK
[9] = Metabolic stability in rat liver microsomes assessed as half life; type: ADME, Microsome
[10] = Inhibition of PDGFR
T-cell [11] = test: Blockade of anti-CD3 and anti-CD28 antibody-induced IL2 expression in PKC theta knockout mouse T cells after 20 to 24 hrs by ELISA; type: functional, cell-based
[12] = target: T1, Protein kinase C zeta type (Homo sapiens, UniProt Q05513); test: Inhibition of human PKCzeta by IMAP assay
T1 sequence (Q05513 whole entry): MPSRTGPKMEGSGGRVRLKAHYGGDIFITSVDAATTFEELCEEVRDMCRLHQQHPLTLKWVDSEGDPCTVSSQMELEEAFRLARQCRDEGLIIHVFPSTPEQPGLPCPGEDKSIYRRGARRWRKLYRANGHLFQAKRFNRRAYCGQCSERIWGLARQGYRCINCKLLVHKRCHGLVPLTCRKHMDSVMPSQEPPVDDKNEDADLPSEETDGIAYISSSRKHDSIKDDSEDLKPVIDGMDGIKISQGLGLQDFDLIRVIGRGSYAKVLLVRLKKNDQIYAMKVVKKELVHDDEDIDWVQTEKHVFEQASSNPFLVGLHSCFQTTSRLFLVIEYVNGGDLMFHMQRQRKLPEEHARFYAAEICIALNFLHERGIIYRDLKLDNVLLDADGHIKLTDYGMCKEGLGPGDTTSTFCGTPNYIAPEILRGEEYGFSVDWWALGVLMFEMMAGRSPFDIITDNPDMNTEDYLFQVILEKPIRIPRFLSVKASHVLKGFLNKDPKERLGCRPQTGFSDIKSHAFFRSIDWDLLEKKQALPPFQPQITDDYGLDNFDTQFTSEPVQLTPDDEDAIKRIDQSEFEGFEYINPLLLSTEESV

[13] = Metabolic stability in dog liver microsomes assessed as half life; type: ADME, Canis lupus familiaris, Microsome
[14] = Metabolic stability in monkey liver microsomes assessed as half life; type: ADME, Macaca mulatta, Microsome; settings: rhesus monkey
[15] = Inhibition of p38
[16] = target: T2, Protein kinase C epsilon type (Homo sapiens, UniProt Q02156); test: Inhibition of human PKCepsilon by IMAP assay
T2 sequence (Q02156 whole entry): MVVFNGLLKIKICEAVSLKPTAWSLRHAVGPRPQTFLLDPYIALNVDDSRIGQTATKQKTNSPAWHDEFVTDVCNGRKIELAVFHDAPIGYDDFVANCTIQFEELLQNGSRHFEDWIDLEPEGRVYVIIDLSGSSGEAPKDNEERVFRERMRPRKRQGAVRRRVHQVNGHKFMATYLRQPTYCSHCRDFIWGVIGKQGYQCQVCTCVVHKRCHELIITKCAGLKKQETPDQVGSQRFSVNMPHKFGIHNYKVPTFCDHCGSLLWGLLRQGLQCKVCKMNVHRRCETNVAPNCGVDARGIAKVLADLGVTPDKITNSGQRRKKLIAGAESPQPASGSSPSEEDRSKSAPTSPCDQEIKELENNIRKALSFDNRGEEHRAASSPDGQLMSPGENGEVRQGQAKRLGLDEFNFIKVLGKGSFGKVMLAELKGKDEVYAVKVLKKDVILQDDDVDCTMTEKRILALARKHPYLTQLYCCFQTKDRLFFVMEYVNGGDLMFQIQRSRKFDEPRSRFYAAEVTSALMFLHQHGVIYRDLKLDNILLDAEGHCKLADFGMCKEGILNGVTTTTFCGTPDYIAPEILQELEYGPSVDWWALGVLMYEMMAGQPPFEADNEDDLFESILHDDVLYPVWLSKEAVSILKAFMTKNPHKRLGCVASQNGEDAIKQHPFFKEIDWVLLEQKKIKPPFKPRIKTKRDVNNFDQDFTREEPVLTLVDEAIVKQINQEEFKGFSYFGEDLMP

[17] = Solubility at pH 7.4; type: physicochemical; settings: buffer
[18] = target: MAP kinase-activated protein kinase 2 (Homo sapiens, UniProt P49137); test: Inhibition of MK2
[19] = target: Protein kinase C eta type (Homo sapiens, UniProt P24723); test: Inhibition of human PKCeta by IMAP assay
[20] = target: Tyrosine-protein kinase Lck (Homo sapiens, UniProt P06239); test: Inhibition of Lck
[21] = target: Rho-associated protein kinase 1 (Homo sapiens, UniProt Q13464); test: Inhibition of ROCK1
[22] = target: Tyrosine-protein kinase Lyn (Homo sapiens, UniProt P07948); test: Inhibition of Lyn
Sequence of Tyrosine-protein kinase Lyn (P07948 whole entry): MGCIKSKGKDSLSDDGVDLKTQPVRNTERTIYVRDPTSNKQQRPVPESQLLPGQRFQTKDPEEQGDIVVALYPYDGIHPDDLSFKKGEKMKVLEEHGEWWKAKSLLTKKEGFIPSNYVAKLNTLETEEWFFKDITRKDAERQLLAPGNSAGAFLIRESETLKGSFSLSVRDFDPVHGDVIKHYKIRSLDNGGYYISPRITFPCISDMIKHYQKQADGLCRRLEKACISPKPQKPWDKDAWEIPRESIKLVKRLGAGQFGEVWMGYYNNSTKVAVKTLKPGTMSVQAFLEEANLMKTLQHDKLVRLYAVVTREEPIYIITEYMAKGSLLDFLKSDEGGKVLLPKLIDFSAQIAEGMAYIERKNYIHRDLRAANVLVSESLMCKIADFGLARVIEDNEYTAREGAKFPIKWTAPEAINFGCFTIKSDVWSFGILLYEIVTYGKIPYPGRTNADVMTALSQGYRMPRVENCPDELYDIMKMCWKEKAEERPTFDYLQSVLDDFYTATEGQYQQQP

Sequence of Protein kinase C theta type (Q04759 whole entry): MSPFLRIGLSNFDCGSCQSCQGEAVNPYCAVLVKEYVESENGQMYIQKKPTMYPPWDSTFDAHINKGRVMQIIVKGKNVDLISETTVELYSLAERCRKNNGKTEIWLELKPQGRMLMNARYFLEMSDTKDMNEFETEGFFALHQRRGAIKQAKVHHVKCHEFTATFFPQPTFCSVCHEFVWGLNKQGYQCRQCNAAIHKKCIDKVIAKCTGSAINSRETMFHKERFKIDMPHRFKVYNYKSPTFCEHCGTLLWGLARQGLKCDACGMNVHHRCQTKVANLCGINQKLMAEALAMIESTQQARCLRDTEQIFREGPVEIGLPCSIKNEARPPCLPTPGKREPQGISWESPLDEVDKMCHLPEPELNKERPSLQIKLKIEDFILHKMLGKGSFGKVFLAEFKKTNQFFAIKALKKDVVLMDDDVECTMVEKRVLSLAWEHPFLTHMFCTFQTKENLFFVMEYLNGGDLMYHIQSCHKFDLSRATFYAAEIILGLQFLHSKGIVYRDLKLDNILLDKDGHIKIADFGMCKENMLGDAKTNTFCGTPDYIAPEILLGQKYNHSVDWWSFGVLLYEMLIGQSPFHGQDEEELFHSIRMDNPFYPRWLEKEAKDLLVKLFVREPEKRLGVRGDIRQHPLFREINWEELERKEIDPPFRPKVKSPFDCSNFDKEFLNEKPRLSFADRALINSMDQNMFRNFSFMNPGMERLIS
Sequence of Protein kinase C delta type (Q05655 whole entry): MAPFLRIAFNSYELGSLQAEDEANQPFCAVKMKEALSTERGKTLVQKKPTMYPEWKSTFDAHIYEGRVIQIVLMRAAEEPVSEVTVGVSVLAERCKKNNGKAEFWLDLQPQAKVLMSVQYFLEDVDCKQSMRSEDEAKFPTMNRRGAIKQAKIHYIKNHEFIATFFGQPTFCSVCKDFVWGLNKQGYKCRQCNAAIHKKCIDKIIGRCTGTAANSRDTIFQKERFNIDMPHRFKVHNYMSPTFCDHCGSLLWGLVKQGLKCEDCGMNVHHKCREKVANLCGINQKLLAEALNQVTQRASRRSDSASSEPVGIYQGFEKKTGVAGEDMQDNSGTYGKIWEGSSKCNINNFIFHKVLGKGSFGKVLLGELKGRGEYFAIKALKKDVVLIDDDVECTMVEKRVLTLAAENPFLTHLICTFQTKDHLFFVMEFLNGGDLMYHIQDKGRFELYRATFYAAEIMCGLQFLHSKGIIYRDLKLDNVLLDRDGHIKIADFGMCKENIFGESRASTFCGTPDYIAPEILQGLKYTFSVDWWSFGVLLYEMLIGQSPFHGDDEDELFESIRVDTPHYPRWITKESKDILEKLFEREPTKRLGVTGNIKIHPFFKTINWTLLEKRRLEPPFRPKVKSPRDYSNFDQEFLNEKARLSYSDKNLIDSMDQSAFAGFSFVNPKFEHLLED
Sequence of Protein kinase C eta type (P24723 whole entry): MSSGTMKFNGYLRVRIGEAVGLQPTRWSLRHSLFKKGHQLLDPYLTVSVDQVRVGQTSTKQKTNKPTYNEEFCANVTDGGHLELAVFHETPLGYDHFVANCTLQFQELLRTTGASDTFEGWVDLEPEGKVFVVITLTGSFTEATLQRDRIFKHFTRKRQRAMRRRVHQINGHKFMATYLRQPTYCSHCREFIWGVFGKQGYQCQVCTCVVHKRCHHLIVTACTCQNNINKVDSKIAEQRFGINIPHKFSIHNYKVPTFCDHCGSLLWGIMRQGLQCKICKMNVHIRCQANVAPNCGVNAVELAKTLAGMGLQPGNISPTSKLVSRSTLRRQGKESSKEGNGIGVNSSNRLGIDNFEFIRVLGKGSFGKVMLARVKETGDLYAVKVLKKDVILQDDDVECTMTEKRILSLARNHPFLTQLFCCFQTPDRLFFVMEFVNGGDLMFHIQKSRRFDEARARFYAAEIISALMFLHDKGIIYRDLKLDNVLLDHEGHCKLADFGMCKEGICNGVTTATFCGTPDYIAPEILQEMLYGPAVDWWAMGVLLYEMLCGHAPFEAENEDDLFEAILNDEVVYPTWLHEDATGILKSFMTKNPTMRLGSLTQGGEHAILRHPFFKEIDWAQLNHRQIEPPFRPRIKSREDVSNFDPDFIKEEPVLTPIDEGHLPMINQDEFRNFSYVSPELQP
Sequence of MAP kinase-activated protein kinase 2 (P49137 whole entry): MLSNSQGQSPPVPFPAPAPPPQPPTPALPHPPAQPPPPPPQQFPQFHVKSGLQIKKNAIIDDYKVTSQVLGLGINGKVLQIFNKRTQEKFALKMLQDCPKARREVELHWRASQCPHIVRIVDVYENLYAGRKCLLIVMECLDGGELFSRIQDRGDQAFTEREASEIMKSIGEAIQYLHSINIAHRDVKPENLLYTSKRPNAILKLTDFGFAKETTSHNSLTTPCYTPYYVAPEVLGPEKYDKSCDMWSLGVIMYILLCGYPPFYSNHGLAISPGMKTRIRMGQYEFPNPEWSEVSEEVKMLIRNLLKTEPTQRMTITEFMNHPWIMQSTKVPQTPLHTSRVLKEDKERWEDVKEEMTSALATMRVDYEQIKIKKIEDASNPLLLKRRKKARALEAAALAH
Sequence of Tyrosine-protein kinase Lck (P06239 whole entry): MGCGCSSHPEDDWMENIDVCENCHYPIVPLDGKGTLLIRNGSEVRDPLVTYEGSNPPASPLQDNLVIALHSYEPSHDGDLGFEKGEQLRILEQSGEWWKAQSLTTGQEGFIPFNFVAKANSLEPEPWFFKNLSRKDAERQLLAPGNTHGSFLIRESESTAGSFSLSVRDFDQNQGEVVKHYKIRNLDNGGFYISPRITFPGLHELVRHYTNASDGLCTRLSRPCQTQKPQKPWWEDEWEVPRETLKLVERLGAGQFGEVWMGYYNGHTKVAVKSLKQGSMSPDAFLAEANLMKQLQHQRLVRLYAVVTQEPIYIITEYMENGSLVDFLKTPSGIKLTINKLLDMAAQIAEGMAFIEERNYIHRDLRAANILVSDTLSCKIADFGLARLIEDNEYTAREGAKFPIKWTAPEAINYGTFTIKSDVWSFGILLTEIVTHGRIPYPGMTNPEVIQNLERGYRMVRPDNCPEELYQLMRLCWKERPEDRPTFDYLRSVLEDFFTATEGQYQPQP
Sequence of Protein kinase C beta type (P05771 whole entry): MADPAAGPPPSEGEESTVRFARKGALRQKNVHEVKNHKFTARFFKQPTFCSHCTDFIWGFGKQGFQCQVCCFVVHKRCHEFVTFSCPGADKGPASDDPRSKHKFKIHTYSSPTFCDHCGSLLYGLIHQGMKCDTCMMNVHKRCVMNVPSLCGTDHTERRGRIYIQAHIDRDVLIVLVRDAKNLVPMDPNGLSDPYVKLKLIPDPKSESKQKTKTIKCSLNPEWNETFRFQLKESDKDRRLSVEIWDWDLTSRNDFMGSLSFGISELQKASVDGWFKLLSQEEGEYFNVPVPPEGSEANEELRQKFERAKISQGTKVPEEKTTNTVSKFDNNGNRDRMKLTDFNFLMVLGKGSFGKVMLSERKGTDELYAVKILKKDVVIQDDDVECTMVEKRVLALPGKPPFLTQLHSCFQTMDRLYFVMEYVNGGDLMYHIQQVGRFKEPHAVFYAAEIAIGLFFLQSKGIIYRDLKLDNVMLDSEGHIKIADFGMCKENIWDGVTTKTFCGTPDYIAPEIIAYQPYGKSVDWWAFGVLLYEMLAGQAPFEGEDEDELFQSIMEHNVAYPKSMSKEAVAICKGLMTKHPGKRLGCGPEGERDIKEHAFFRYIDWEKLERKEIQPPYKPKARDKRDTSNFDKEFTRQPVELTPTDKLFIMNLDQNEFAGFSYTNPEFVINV

Compound | IC50 [1] [nM] | IC50 [2] [nM] | other results
COc1ccc(-c2cncc(C#N)c2Nc2ccc3c(ccn3C)c2C)cc1OC | 260 | 1400 | 
Cc1c(Nc2c(C#N)cncc2-c2ccc(OCCN3CCOCC3)cc2)ccc2[nH]ccc12 |  | 150 | 
Cc1cc2[nH]ccc2cc1Nc1c(C#N)cncc1-c1ccc(OCCN2CCN(C)CC2)cc1 |  | 130 | 
COc1ccc(-c2cncc(C#N)c2Nc2ccc3cc[nH]c3c2)cc1OC | 2300 |  | 
CCc1c(Nc2c(C#N)cncc2-c2ccc(OC)c(OC)c2)ccc2[nH]ccc12 | 55 | 980 | 
COc1ccc(-c2cncc(C#N)c2Nc2cc(C)c3[nH]ccc3c2)cc1OC | 120 |  | 
COc1ccc(-c2cncc(C#N)c2Nc2cc3cc[nH]c3cc2C)cc1OC | 10.5 | 280 | 
COc1ccc(-c2cncc(C#N)c2N(C)c2ccc3[nH]ccc3c2)cc1OC |  | 2100 | 
COc1ccc(-c2cncc(C#N)c2Oc2ccc3[nH]ccc3c2)cc1OC | 1700 |  | 
COc1ccc(-c2cncc(C#N)c2-c2ccc3[nH]ccc3c2)cc1OC | 1700 |  | 
COc1ccc(-c2cncc(C#N)c2Nc2ccc3[nH]ccc3c2OC)cc1OC |  | 350 | 
COc1ccccc1-c1cncc(C#N)c1Nc1ccc2[nH]ccc2c1C |  | 340 | 
COc1cccc(-c2cncc(C#N)c2Nc2ccc3[nH]ccc3c2C)c1 |  | 210 | 
CN1CCN(CCOc2ccc(-c3cncc(C#N)c3Nc3ccc4[nH]ccc4c3)cc2)CC1 |  | 160 | 

Second part, led by results:

IC50 [1] [nM] | IC50 [2] [nM] | Compound | other results
5.3 | 69 | COc1ccc(-c2cncc(C#N)c2Nc2ccc3[nH]ccc3c2F)cc1OC | 
 | 63 | Cc1c(Nc2c(C#N)cncc2-c2ccccc2)ccc2[nH]ccc12 | 
5.6 | 85 | COc1ccc(-c2cncc(C#N)c2Nc2ccc3[nH]ccc3c2C)cc1 | 
7.4 | 51 | Cc1c(Nc2c(C#N)cncc2-c2ccc(OCCN3CCN(C)CC3)cc2)ccc2[nH]ccc12 | half-life [3]: < 15 min; half-life [4]: < 15 min; Papp [5]: 0.28 ×10⁻⁶ cm/s; IC50 [6]: 22000 nM; IC50 (T-cell [7]): 160 nM; IC50 [8]: > 10000 nM; half-life [9]: < 15 min; IC50 [10]: > 10000 nM; IC50 (T-cell [11]): > 15000 nM; IC50 [12]: > 100000 nM; half-life [13]: < 15 min; half-life [14]: < 15 min; IC50 [15]: > 10000 nM; IC50 [16]: 54 nM; solubility [17]: 67 µg/mL (≈ 144 µM); IC50 [18]: > 10000 nM; IC50 [19]: 450 nM; IC50 [20]: > 10000 nM; IC50 [21]: > 10000 nM; IC50 [22]: > 10000 nM
 | 110 | Cc1c(Nc2c(C#N)cncc2-c2ccc(OCCCN3CCN(C)CC3)cc2)ccc2[nH]ccc12 | 
14 | 41 | CN1CCN(CCOc2ccc(-c3cncc(C#N)c3Nc3cccc4[nH]ccc34)cc2)CC1 | 
 | 30 | Cc1c(Nc2c(C#N)cncc2-c2ccc(OCCN3CCC(N4CCCC4)CC3)cc2)ccc2[nH]ccc12 | 
5.9 | 18 | Cc1c(Nc2c(C#N)cncc2-c2ccc(OCCNCCN(C)C)cc2)ccc2[nH]ccc12 | 
4.5 | 28 | Cc1c(Nc2c(C#N)cncc2-c2ccc(OCCN3CCCC3)cc2)ccc2[nH]ccc12 | 
6.3 | 81 | COc1ccc(-c2cncc(C#N)c2Nc2ccc3[nH]ccc3c2C)cc1OC | 
 | 62 | COc1ccc(-c2cncc(C#N)c2Nc2cccc3[nH]ccc23)cc1OC | 
 | 29 | Cc1c(Nc2c(C#N)cncc2-c2ccc(OCCN3CCN(CCO)CC3)cc2)ccc2[nH]ccc12 | 

Source: ChEMBL document CHEMBL1136942, “Optimization of 5-phenyl-3-pyridinecarbonitriles as PKCtheta inhibitors” (Bioorg Med Chem Lett, 2009)
